{
  "source": "patent US20080260771A1",
  "about": "“PROSTATE DISORDER(S) PHYTO-NUTRACEUTICAL SYNERGISTIC COMPOSITION” (priority 2006, published 2008)",
  "origin": "cited, not measured here",
  "key": {"[1]": {"tested_on": "prostate tumor"}, "[2]": {"tested_on": "human prostate cancer cells", "conditions": "not in normal prostate epithelial cells"}, "[3]": {"tested_on": "prostate cancer", "conditions": "supranutritional doses of selenium, clinical trials"}},
  "data": [
    {"compound": "Vitamin E", "values": [
      {"measurement": "tumor growth and lung metastases", "setting": "[1]", "value": "significantly suppressed tumor growth"}
    ]},
    {"compound": "[Se]", "note": "[Selenium]", "values": [
      {"measurement": "apoptotic death", "setting": "[2]", "value": "induces rapid apoptotic death"},
      {"measurement": "reduction of prostate cancer incidence", "setting": "[3]", "value": 50, "unit": "%"}
    ]}
  ]
}
